From patent US5006549A, “Novel 7-aroyl-4-hydroxy-3-methyl-benzofurans as dual inhibitors of cyclooxygenase and 5-lipoxygenase” (priority 1989, dated 1991)
Read-outs that look alike come from different tables or passages of the source.

Columns and labels:
cyclooxygenase [1] = conditions: bovine seminal vesicle microsomal enzyme preparation; read-out: IC50 against cyclooxygenase; cited from earlier work
5-lipoxygenase = conditions: cited from earlier work
[2] = tested on: animal models of inflammation; conditions: several animal models; cited from earlier work
[3] = tested on: LTB4 production in PMN (LO); experiment: PMN LTB4 Assay (inhibition of LTB4 production in rat PMN); format: cell-based, male Sprague-Dawley rats; conditions: for IC50: leukotriene biosynthesis in rat PMN, mean values of at least two titrations
Description: Male Sprague-Dawley rats (~350 g) were injected intraperitoneally the day before use with 8 mL of 12% sodium caseinate. The next day the animals were killed by CO2 asphyxiation and the peritoneal cavity lavaged twice with 20 mL of Hanks balanced salts containing 15 mM HEPES (pH 7.4), 1.4 mM Ca^++ and 0.7 mM Mg^++ (Hepes-Hanks). The suspensions were filtered through plastic mesh and centrifuged at 260×g for 5 minutes. The cells were resuspended in 50 ml Hepes-Hanks and recentrifuged. The PMN pellets were combined and suspended at 1.25×10^7 cells/mL. The cell suspension was diluted 1:10, preincubated 5 minutes at 37° and distributed into 96 well microtiter plates with […]. The wells had previously received samples, controls, ect., in 25 mL of 0.001% fatty acid free BSA in Hepes-Hanks. The plates were incubated 2 min. at 37° and then the cells were stimulated to produce LTB4 by the addition of 25 mL of […]. After 4 minutes the plates were frozen in dry ice. The frozen plates were thawed to 4° and 25 mL aliquots removed to V-well plates. Antibody to LTB4 (50 mL) was added in and after 15 minutes at room temperature, 50 mL of ^3 H-LTB4 was added and the plates were stored overnight at 4° to allow equilibration. The next day the "free" 3HLTB4 was removed by adsorption to dextran coated charcoal ([…]/well of a 4% charcoal suspension with 0.25% Dextran T-70 in 10 mM potassium phosphate (pH 7.3) containing 1 mM EDTA and 0.25 mM thimerasol) durring a 10 minute ice temperature incubation. The charcoal was removed by a 10 minute centrifugation at 260×g. Aliquots of the supernatant were counted in a Packard 460, analyzed in a Masscomp computer (programs "filhariala and fhariasa") and the data reported as percent inhibition of LTB4 production.

[4] = target: T1, Ram seminal vesicle microsomal cyclooxygenase (Ovis aries, UniProt P05979); experiment: Ram Seminal Vesicle Microsomal Cyclooxygenase Assay (RSV CO); format: biochemical; conditions: for IC50: RSV cyclooxygenase, mean values of at least two titrations; for activity in the CO assay: reference compounds
T1 construct: Ram seminal vesicular glands were trimed of excess fat; from tissue; host or cells: ram seminal vesicular glands, microsomes (105K×g pellet)
T1 sequence (P05979 25-600): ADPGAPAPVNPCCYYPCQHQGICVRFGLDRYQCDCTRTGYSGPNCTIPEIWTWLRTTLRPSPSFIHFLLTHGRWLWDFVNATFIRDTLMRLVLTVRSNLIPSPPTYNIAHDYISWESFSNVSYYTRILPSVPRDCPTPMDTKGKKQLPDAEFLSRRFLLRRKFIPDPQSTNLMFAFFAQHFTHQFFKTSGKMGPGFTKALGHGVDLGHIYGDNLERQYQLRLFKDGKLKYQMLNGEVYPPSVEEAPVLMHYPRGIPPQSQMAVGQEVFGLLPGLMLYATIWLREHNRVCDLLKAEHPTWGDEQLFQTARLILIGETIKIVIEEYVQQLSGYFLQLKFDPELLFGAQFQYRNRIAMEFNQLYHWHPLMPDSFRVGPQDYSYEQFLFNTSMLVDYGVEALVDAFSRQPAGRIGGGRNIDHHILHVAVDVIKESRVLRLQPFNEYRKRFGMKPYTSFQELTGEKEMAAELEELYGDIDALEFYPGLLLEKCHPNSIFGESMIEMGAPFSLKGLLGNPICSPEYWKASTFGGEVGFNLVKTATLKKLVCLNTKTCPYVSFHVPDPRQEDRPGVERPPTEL
Description: Compounds of formula I were also evaluated in accordance with the ram seminal vesicle microsomal cyclooxygenase (RSV CO) assay.
Ram Seminal Vesicle Microsomal Cyclooxygenase Assay (RSV CO)
Ram seminal vesicular glands were trimed of excess fat, 50 gm diced into ice cold 0.1M potassium phosphate (pH 7.6) buffer and homoginized using a Brinkman Polytron. The suspension was centrifuged 10 min. at 10K×g (4°) and the supernatant filtered through two cheesecloth layers. The filtrate was centrifuged 160 min. at 105K×g. The supernatant was discarded and the pellet surface rinsed with a small volume of buffer. The pellets were combined in a small volume, briefly homoginized with the Polytron and frozen in 0.5 mL aliquots at -80°. The protien concentration was ~50 mg/mL. […] The thawed enzyme was diluted 1:63 with 0.125M sodium EDTA (pH 8.0) containing 50 mg/ml BSA. A substrate cofactor premix was prepared with 66 mL 14C-arachidonic acid (~20K cpm/12.5 mL) in 500 mL 0.125 M sodium EDTA (pH 8.0) plus 10 mL 50 mM hydroquinone and 10 mL 200 mM glutathione. To each sample well in the 96 well plate agents were added disolved in 0.5 mL DMSO followed by 12.5 mL of the diluted enzyme. After a 4 minute preincubation at room temperature 12.5 mL of the substrate cofactor mix was added to start the reaction. The reaction was killed after 20 minutes at room temperature by adding 25 mL methanol containing 200 mg PGE2 and 400 mg AA per mL. The entire reaction mixture was spotted onto a preadsorbent silica gel GF thin layer plate and, after air drying 45 minutes developed 12 cm in ethyl acetate:glacial acetic acid (99:1). The developed lanes were scanned for the distribution of radiolabel using a Bioscan Imaging Detector and the integrated peaks compared to standards and controls yielding percent inhibition.

[5] = tested on: LTB4 biosynthesis in intact rat PMN; conditions: cited from earlier work
cyclooxygenase [6] = conditions: cited from earlier work

Compound | IC50 [3] | IC50 [4] | other results
CC(C)(C)c1cc(C(=O)c2cccs2)cc(C(C)(C)C)c1O [A, 2,6-di-tert-butyl-4-(2-thienoyl) phenol] |  |  | IC50 (cyclooxygenase [1]): 0.5 µM; potency at inhibiting guinea pig lung 5-lipoxygenase relative to cyclooxygenase (5-lipoxygenase; compared with bovine seminal vesicle cyclooxygenase): fortyfold less potent; IC50 (5-lipoxygenase; guinea pig lung, read-out: IC50 against guinea pig lung 5-lipoxygenase): 20 µM; antiinflammatory activity in animal models of inflammation [2]: novel antiinflammatory agent in several animal models of inflammation
Cc1coc2c(C(=O)c3cccs3)ccc(O)c12 [Compound 3, 3-Methyl-4-hydroxy-7-(2-thienoyl)benzofuran] | 2.7 µM | 0.8 µM | 
C=CCc1cc(C(=O)c2cccs2)c2occ(C)c2c1O [Compound 4, 3-methyl-4-hydroxy-5-(2-propen-1-yl)-7-(2-thienoyl)benzofuran] | 6.7 µM | 5.6 µM | 
CCCc1cc(C(=O)c2cccs2)c2occ(C)c2c1O [Compound 5, 3-Methyl-4-hydroxy-5-propyl-7-(2-thienoyl)benzofuran] | 1.7 µM | 1.3 µM | 
Cc1coc2c(C(=O)c3ccccc3)ccc(O)c12 [Compound 6, 3-Methyl-4-hydroxy-7-benzoylbenzofuran] | 3.5 µM | 1.3 µM | 
Cc1coc2c(C(C)(C)C)ccc(O)c12 [Compound 10a, 3-Methyl-4-hydroxy-7-tert-butylbenzofuran] | 2.1 µM |  | inhibition at 1000 µg/mL ([4]; read-out: % inhibition (CO)): 1%
Cc1coc2c(C(C)(C)C)cc(C(C)(C)C)c(O)c12 [Compound 10b, 3-Methyl-4-hydroxy-5,7-di-tert-butylbenzofuran] |  |  | inhibition at 1000 µg/mL ([3]; Rattus norvegicus, at 1 mg/ml): 37%; inhibition at 10000 µg/mL ([4]; read-out: % inhibition (CO)): 0%
Cc1coc2ccc(C(C)(C)C)c(O)c12 [Compound 12b, 3-Methyl-4-hydroxy-5-tert-butylbenzofuran] | 0.6 µM | 54 µM | 
Cc1coc2c(C(=O)c3cccs3)cc(C(C)(C)C)c(O)c12 [Compound 14, 3-Methyl-4-hydroxy-5-tert-butyl-7-(2-thienoyl)-benzofuran] | 1.5 µM | 1 µM | 
Cc1coc2c(C(=O)c3ccccc3)cc(C(C)(C)C)c(O)c12 [Compound 16, 3-Methyl-4-hydroxy-5-tert-butyl-7-benzoylbenzofuran] | 1.1 µM | 1.3 µM | 
Cc1coc2c(C(=O)c3ccc(Cl)cc3)cc(C(C)(C)C)c(O)c12 [Compound 19, 3-Methyl-4-hydroxy-5-tert-butyl-7-p-chlorobenzoylbenzofuran] | 4.4 µM | 1.2 µM | 
CCCc1cc(Cl)c2oc(Cc3ccccc3)c(C)c2c1O [Compound B] |  |  | IC50 [5]: 0.24 µM; potency on cyclooxygenase relative to LTB4 biosynthesis inhibition (selectivity) (cyclooxygenase [6]; RSV CO versus intact rat PMN): a hundred times less potent; IC50 (cyclooxygenase [6]; RSV CO): 25 µM
CC(C)Cc1ccc(C(C)C(=O)O)cc1 (centres unmarked) [ibuprofen, reference compound] |  |  | activity in the CO assay [4]: displaying activity
COc1ccc2c(c1)c(CC(=O)O)c(C)n2C(=O)c1ccc(Cl)cc1 [indomethacin, reference compound] |  |  | activity in the CO assay [4]: displaying activity
